# From paper PMC5548612 (Drug and alcohol dependence, 2017)
# Columns and labels:
# Experiment in all cases: competitive radioligand binding
# sigma-1 receptor = target: sigma-1 receptor
# 5-HT2C receptor = target: T1, 5-HT2C receptor (Homo sapiens, UniProt P28335)
# T1 sequence (P28335 33-458): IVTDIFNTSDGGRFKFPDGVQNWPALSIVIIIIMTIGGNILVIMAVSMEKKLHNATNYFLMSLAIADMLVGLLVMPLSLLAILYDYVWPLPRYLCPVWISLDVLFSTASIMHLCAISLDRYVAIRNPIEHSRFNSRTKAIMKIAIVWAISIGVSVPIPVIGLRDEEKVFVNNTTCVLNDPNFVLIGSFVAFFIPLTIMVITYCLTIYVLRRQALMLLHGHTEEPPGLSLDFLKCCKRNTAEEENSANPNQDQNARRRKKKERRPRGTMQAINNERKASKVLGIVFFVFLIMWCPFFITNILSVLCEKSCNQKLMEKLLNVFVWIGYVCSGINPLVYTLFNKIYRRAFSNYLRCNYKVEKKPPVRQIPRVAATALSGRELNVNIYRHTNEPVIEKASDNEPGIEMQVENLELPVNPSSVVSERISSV
# 5-HT2B receptor = 5-HT2B receptor (Homo sapiens, UniProt P41595)
# Chain of 5-HT2B receptor (P41595 whole entry): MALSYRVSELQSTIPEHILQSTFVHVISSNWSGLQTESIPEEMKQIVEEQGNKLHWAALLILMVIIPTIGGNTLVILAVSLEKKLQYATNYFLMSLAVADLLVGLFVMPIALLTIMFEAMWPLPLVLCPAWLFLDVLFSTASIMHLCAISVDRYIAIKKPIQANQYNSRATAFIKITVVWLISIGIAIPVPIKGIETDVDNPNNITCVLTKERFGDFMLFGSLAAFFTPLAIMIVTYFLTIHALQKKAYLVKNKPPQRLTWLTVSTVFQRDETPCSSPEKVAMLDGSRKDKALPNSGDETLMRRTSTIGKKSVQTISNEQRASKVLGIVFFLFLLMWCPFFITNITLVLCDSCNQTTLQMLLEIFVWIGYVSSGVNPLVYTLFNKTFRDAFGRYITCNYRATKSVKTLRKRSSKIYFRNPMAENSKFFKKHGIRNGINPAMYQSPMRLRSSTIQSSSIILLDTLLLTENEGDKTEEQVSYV
structure (smiles),measurement,setting,value
"CN[C@@H](C)C(=O)c1ccc(C)cc1 [S-MEPH, S-mephedrone]",Ki,sigma-1 receptor,1500 nM
same,Ki,5-HT2C receptor,3900 nM
same,Ki,5-HT2B receptor,857 nM
